Test results reported in BindingDB's records for doi:10.1073/pnas.90.2.408 (Synaptic Pharmaceutical, 1993).

These compounds were tested against T1, 5-hydroxytryptamine receptor 1F (Homo sapiens, UniProt P30939).
T1 sequence (P30939 whole entry): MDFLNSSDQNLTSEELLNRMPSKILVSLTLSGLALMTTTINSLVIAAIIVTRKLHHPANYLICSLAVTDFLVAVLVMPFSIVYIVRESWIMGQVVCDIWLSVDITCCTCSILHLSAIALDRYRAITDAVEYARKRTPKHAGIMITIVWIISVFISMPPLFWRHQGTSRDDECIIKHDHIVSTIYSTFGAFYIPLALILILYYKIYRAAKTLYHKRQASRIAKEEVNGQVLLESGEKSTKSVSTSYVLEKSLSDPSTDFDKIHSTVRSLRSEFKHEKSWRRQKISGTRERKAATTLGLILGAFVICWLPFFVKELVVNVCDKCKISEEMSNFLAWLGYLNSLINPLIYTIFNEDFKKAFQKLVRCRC

Row | SMILES | Ki
1 | CCCN(CCC)C1CCc2cccc(O)c2C1 (configuration not stated) | 1770 nM
2 | COc1ccc2[nH]cc(CCN(C)C)c2c1 [3-(2-DIMETHYLAMINOETHYL)-5-METHOXYINDOLE] | 37 nM
3 | O=C(c1ccc(F)cc1)C1CCN(CCn2c(=O)[nH]c3ccccc3c2=O)CC1 [3-(2-{4-[(4-fluorophenyl)carbonyl]piperidin-1-yl}ethyl)-1,2,3,4-tetrahydroquinazoline-2,4-dione] | > 10000 nM
4 | Cn1cc(CCN)c2cc(O)ccc21 [5-HT,omega-N-Me] | 184 nM
5 | O=C(CCCN1CCC2(CC1)C(=O)NCN2c1ccccc1)c1ccc(F)cc1 [8-[4-(4-fluorophenyl)-4-oxidanylidene-butyl]-1-phenyl-1,3,8-triazaspiro[4.5]decan-4-one] | > 10000 nM
6 | CC(C)NCC(O)COc1cccc2[nH]ccc12 (configuration not stated) [LB-46] | > 10000 nM
7 | CN1C[C@@H](NS(=O)(=O)N(C)C)C[C@@H]2c3cccc4c3c(cn4C)C[C@H]21 [MESULERGINE] | > 10000 nM
8 | CCCN(CCC)CCc1c[nH]c2ccc(C(N)=O)cc12 [NN-DIPROP-5-CT] | 1610 nM
9 | COc1cc(N)c(Cl)cc1C(=O)NC1CN2CCC1CC2 (configuration not stated) [ZACOPRIDE,R] | > 10000 nM
10 | COc1cc(CC(C)N)c(OC)cc1I (configuration not stated) [[125I]2,5-dimethoxy-4-iodoamphetamine] | 1740 nM
11 | CSc1ccc2c(c1)C(N1CCN(C)CC1)Cc1ccccc1S2 (configuration not stated) [methanesulfonic acid;1-methyl-4-(3-methylsulfanyl-5,6-dihydrobenzo[b][1]benzothiepin-5-yl)piperazine] | 652 nM
12 | COc1ccc2[nH]cc(CCN)c2c1 [tryptamine, 5-Methoxy] | 1170 nM
